Source: ChEMBL document CHEMBL1156734, “Discovery of 1,3-disubstituted-1H-pyrrole derivatives as potent melanin-concentrating hormone receptor 1 (MCH-R1) antagonists” (Bioorg Med Chem Lett, 2008)

Columns and labels:
[1] = biological target: T1, Melanin-concentrating hormone receptor 1 (Homo sapiens, UniProt Q99705); test: Displacement of [125I]MCH from human MCHR1 expressed in HEK293 cells; assay type: cell-based
[2] = biological target: T1, Melanin-concentrating hormone receptor 1; test: Antagonist activity at human MCHR1 expressed in HEK293 cells assessed as [35S]GTPgammaS accumulation; assay type: functional, cell-based
[3] = Fraction unbound in human plasma; assay type: ADME, cell-free
Mus musculus = test: Intrinsic clearance in C57BL mouse at 20 uM/kg, iv; assay type: ADME, organism-based; conditions: in vivo
Liver microsomes = test: Metabolic stability in human liver microsomes; assay type: ADME, Microsome

T1 sequence (Q99705 whole entry): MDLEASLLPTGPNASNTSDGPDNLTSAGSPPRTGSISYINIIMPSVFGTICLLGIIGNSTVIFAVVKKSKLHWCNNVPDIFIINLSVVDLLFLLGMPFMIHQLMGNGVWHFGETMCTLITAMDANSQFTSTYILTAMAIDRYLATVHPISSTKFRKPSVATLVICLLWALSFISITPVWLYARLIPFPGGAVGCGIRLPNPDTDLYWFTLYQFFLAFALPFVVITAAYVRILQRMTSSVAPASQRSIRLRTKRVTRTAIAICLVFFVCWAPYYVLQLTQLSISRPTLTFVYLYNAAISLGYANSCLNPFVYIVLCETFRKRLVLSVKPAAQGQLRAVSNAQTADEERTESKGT

SMILES | IC50 [1] [nM] | IC50 [2] [nM] | also measured
Cc1c(-c2ccccc2)[nH]c(=O)n1C1CCN(Cc2ccn(-c3ccc(C(F)(F)F)cc3)c2)CC1 | 26 | 71 | –
O=C(COc1cccc(Cl)c1)NCC1CCN(Cc2ccn(-c3ccc(C(F)(F)F)cn3)c2)CC1 | 313 | – | –
O=C(COc1cccc(Cl)c1)NCC1CCCN(Cc2ccn(-c3ccc(C(F)(F)F)cn3)c2)C1 (stereo not given) | 303 | – | –
O=C(COc1ccc(F)c(F)c1)NCC1CN(Cc2ccn(-c3ccc(C(F)(F)F)cc3)c2)CCO1 (stereo not given) | 269 | – | –
Fc1ccc(-c2cc(C3CCN(Cc4ccn(-c5ccc(C(F)(F)F)cc5)c4)CC3)on2)cc1 | 66 | – | –
Fc1ccc(-c2ncc(C3CCN(Cc4ccn(-c5ccc(C(F)(F)F)cc5)c4)CC3)[nH]2)cc1 | 113 | – | –
Fc1ccc(-c2cc(C3CCN(Cc4ccn(-c5ccc(C(F)(F)F)cc5)c4)CC3)n[nH]2)cc1 | 37 | 58 | –
O=C(COc1cccc(Cl)c1)NC1CCN(Cc2cccc(-n3cccc3)c2)CC1 | 297 | – | –
O=C(COc1cccc(Cl)c1)NC1CCN(Cc2ccc3ccccc3c2)CC1 | 41 | 104 | –
O=C(COc1cccc(Cl)c1)NC1CCN(Cc2cc3c(cc2Cl)OCO3)CC1 | 82 | 505 | –
O=C(COc1cccc(Cl)c1)NC1CCN(Cc2ccc3[nH]ccc3c2)CC1 | 2340 | – | –
O=C(COc1cccc(Cl)c1)NC1CCN(Cc2ccn(-c3ccc(C(F)(F)F)cn3)c2)CC1 | 48 | 92 | –
COc1ccc(-n2ccc(CN3CCC(NC(=O)COc4cccc(Cl)c4)CC3)c2)cc1 | 100 | 90 | –
O=C(COc1cccc(Cl)c1)NC1CCN(Cc2ccc(-c3ccc(C(F)(F)F)cn3)o2)CC1 | 927 | – | –
O=C(COc1cccc(Cl)c1)NC1CCN(Cc2ccn(-c3ccc(C(F)(F)F)cc3)c2)CC1 | – | – | fraction unbound [3]: 0.012; CL (Mus musculus): 41 mL/min/kg; clearance (Liver microsomes): 38 µL/min/mg
O=C(COc1cccc(Cl)c1)NC1CCN(Cc2ccn(C3CCCC3)c2)CC1 | > 33000 | – | –
CC(c1ccn(-c2ccc(C(F)(F)F)cc2)c1)N1CCC(NC(=O)COc2cccc(Cl)c2)CC1 (stereo not given) | 43 | 117 | –
Cc1cc(CN2CCC(NC(=O)COc3cccc(Cl)c3)CC2)c(C)n1-c1ccccc1 | 9650 | – | –
O=C(COc1cccc(Cl)c1)NC1CCN(Cc2ccn(-c3ccccc3)c2)CC1 | 710 | – | –
O=C(COc1cccc(Cl)c1)NC1CCN(Cc2cn(-c3ccc(C(F)(F)F)cc3)cn2)CC1 | 2140 | – | –

SMILES | IC50 [1] [nM] | IC50 [2] [nM] | also measured
O=C(COc1cccc(Cl)c1)N[C@H]1[C@@H]2CN(Cc3ccn(-c4ccc(C(F)(F)F)cc4)c3)C[C@@H]21 | 111 | – | –
CN(C(=O)COc1cccc(Cl)c1)C1CCN(Cc2ccn(-c3ccc(C(F)(F)F)cc3)c2)CC1 | 109 | – | –
FC(F)(F)c1ccc(-n2ccc(CN3CCC(NCCOc4cccc(Cl)c4)CC3)c2)cc1 | 636 | – | –
O=C(COc1cccc(Cl)c1)NC1CCN(Cc2csc(-c3ccc(Cl)cc3)n2)CC1 | 347 | – | –
O=C(COc1cccc(Cl)c1)NC1CCCN(Cc2ccn(-c3ccc(C(F)(F)F)cn3)c2)C1 (stereo not given) | 3050 | – | –
O=C(COc1ccc(F)c(F)c1)NC1CCN(Cc2ccn(-c3ccc(C(F)(F)F)cc3)c2)C1 (stereo not given) | 29 | 48 | –
O=C(COc1ccc(F)c(F)c1)N[C@H]1CC[C@H](Nc2ccn(-c3ccc(C(F)(F)F)cc3)c2)C1 | 2260 | – | –
O=C(COc1cccc(Cl)c1)N1CCC(Nc2ccn(-c3ccc(C(F)(F)F)cn3)c2)CC1 | 1250 | – | –
Cc1cccc(OCC(=O)NCC2CN(Cc3ccn(-c4ccc(C(C)(C)C)cn4)c3)C2)c1 | 169 | – | –
O=C(COc1cccc(Cl)c1)NC1CCN(Cc2ccn(-c3ccon3)c2)CC1 | 1500 | – | –
Fc1ccc(-c2c[nH]c(C3CCN(Cc4ccn(-c5ccc(C(F)(F)F)cc5)c4)CC3)n2)cc1 | 20 | 122 | –
Fc1ccc(-c2cc(C3CCN(Cc4ccn(-c5ccc(C(F)(F)F)cc5)c4)CC3)no2)cc1 | 25 | 67 | –
O=C(COc1cccc(Cl)c1)NC1CCN(Cc2ccc(-c3ccc(OC(F)(F)F)cc3)o2)CC1 | 78 | 103 | –
N#Cc1ccc(-n2ccc(CN3CCC(NC(=O)COc4cccc(Cl)c4)CC3)c2)cc1 | 52 | 145 | –
O=C(COc1cccc(Cl)c1)NC1CCN(Cc2ccn(-c3ccc(OC(F)(F)F)cc3)c2)CC1 | 31 | 15 | fraction unbound [3]: 0.032; CL (Mus musculus): 34 mL/min/kg; clearance (Liver microsomes): 21 µL/min/mg
O=C(NC1CCN(Cc2ccc(Cl)c(Cl)c2)CC1)c1csc([N+](=O)[O-])c1 | 92 | 804 | –
O=C(COc1cccc(Cl)c1)NC1CCN(Cc2ccc3c(c2)OCCO3)CC1 | 903 | – | –
O=C(COc1cccc(Cl)c1)NC1CCN(Cc2ccc(-c3ccccn3)cc2)CC1 | 120 | – | –
O=C(COc1cccc(Cl)c1)NC1CN(Cc2ccn(-c3ccc(C(F)(F)F)cc3)c2)C1 | 42 | 73 | –
O=C(COc1ccc(F)c(F)c1)N[C@H]1CC[C@@H](Nc2ccn(-c3ccc(C(F)(F)F)cc3)c2)CC1 | 104 | – | –
